From patent US20240425501A1, “NOVEL BICYCLIC HETEROARYL DERIVATIVES AS SOS1:KRAS PROTEINPROTEIN INTERACTION INHIBITORS” (SATYARX PHARMA INNOVATIONS PVT LTD, priority 2021, published 2024)

target: T1, hSOS1 enzyme / KRAS (G12C), GST-Tag, GDP-bound protein (Homo sapiens, UniProt Q07889); assay: SOS1-mediated KRAS guanine nucleotide exchange (GEF) assay, HTRF ("On Assay"); type: biochemical; settings: 1 μM compound
T1 sequence (Q07889 564-1049 limits assumed): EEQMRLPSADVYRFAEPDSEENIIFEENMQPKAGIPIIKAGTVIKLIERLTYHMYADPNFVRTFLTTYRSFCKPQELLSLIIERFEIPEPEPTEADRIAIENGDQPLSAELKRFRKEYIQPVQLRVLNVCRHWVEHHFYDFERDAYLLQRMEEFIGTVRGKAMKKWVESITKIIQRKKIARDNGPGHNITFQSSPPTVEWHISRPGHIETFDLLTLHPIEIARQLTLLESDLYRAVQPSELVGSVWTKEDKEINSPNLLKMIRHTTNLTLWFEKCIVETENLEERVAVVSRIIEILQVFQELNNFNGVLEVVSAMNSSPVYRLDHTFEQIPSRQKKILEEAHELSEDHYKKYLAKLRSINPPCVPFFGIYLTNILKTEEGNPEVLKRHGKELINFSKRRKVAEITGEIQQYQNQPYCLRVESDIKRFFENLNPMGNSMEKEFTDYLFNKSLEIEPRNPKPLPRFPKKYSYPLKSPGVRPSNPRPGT
Protocol: Biochemical Assay: Measurement of SOS1-Mediated KRAS Guanine Nucleotide Exchange (GEF) Assay
This assay quantifies the HTRF-based SOS1 mediated guanine nucleotide exchange assay detecting GTP binding to KRAS (G12C), GST-Tag, GDP-bound protein. This is also referred as “On Assay”.The assay buffer composition is as follows: 10 mM HEPES pH-7, 150 mM NaCl, 5 mM MgCl2, 1 mM DTT, 0.05% BSA, 0.0025% IGEPAL CA-630 and MilliQ water. 0.5 μl of compounds diluted in assay buffer were dispensed into the respective wells of 384 black well test plate. 4.75 μl of KRAS working solution containing 100 nM KRAS (G12C), GST-Tag, GDP-bound protein GDP-loaded (Reaction biology) and 2 nM Anti GST-Tb cryptate (FRET donor, Cisbio) was added in assay buffer. The components were incubated for 10 min at 25° C.
4.75 μl of hSOS1 working solution containing 20 nM hSOS1 enzyme and 200 nM EDA-GTP-DY-647P (FRET acceptor, synthesized by Jena Bioscience (Germany), supplied as a 1 mM solution) was further added in assay buffer. 4.75 μl of inhibitor control having only 200 nM EDA-GTP-DY-647P1 component without hSOS1 working solution was added in the negative control well. The plate was short spun for few seconds and incubated for 10 min. HTRF was measured using Perkin Elmer-Nivo 5F multimode plate reader.
HTRF settings: EXCITATION FILTER—320/75 nm, EMISSION FILTER (1) —615/8 nm, EMISSION FILTER (2)—665/8 nm

For `COCCOc1nc(N[C@H](C)c2cc(N)cc(C(F)(F)F)c2)c2cc(N3CCCC3)ncc2n1` [Example 4, (R)—N-(1-(3-amino-5-(trifluoromethyl)phenyl)ethyl)-2-(2-methoxyethoxy)-6-(pyrrolidin-1-yl)pyrido[3,4-d]pyrimidin-4-amine], which inhibition at 1 µM is on record?
Its inhibition at 1 µM is at least 50%.

Which inhibition at 1 µM does the source give for `C[C@@H](Nc1nc(N2CCN(C)CC2)nc2cnc(N3CCCC3)cc12)c1cc(N)cc(C(F)(F)F)c1` [Example 6, (R)—N-(1-(3-amino-5-(trifluoromethyl)phenyl)ethyl)-2-(4-methylpiperazin-1-yl)-6-(pyrrolidin-1-yl)pyrido[3,4-d]pyrimidin-4-amine] here?
The inhibition at 1 µM was under 50%.

`COCCNc1nc(N[C@H](C)c2cc(N)cc(C(F)(F)F)c2)c2cc(N3CCCC3)ncc2n1` [Example 14, (R)—N4-(1-(3-amino-5-(trifluoromethyl)phenyl)ethyl)-N2-(2-methoxyethyl)-6-(pyrrolidin-1-yl)pyrido[3,4-d]pyrimidine-2,4-diamine] was tested. Which inhibition at 1 µM did it give?
Its inhibition at 1 µM is at least 50%.

`C[C@@H](Nc1nc(N(C)CCO)nc2cnc(N3CCCC3)cc12)c1cc(N)cc(C(F)(F)F)c1` [Example 13, (R)-2-((4-((1-(3-amino-5-(trifluoromethyl)phenyl)ethyl)amino)-6-(pyrrolidin-1-yl)pyrido[3,4-d]pyrimidin-2-yl)(methyl)amino)ethan-1-ol] was tested. Which inhibition at 1 µM did it give?
Its inhibition at 1 µM is at least 50%.

Which inhibition at 1 µM does the source give for `COCCN(C)c1nc(N[C@H](C)c2cc(N)cc(C(F)(F)F)c2)c2cc(N3CCCC3)ncc2n1` [Example 15, (R)—N4-(1-(3-amino-5-(trifluoromethyl)phenyl)ethyl)-N2-(2-methoxyethyl)-N2-methyl-6-(pyrrolidin-1-yl)pyrido[3,4-d]pyrimidine-2,4-diamine] here?
The inhibition at 1 µM was at least 50%.

With `C[C@@H](Nc1nc(N2CCC2)nc2cnc(N3CCC(F)CC3)cc12)c1cc(N)cc(C(F)(F)F)c1` [Example 44, (R)—N-(1-(3-amino-5-(trifluoromethyl)phenyl)ethyl)-2-(azetidin-1-yl)-6-(4-fluoropiperidin-1-yl)pyrido[3,4-d]pyrimidin-4-amine] as the molecule, how does the inhibition at 1 µM read?
Its inhibition at 1 µM is at least 50%.

`CNCCC(=O)Nc1nc(N[C@H](C)c2cc(N)cc(C(F)(F)F)c2)c2cc(N3CCCC3)ncc2n1` [Example 78] was tested. Which inhibition at 1 µM did it give?
Its inhibition at 1 µM is at least 50%.

For `C[C@@H](Nc1nc(N2CCC2)nc2cnc(N3CCN(C)CC3)cc12)c1cc(N)cc(C(F)(F)F)c1` [Example 46, (R)—N-(1-(3-amino-5-(trifluoromethyl)phenyl)ethyl)-2-(azetidin-1-yl)-6-(4-methylpiperazin-1-yl)pyrido[3,4-d]pyrimidin-4-amine], which inhibition at 1 µM is on record?
Its inhibition at 1 µM is at least 50%.

How did the inhibition at 1 µM turn out when `COCC(=O)Nc1nc(N[C@H](C)c2cc(N)cc(C(F)(F)F)c2)c2cc(N3CCCC3)ncc2n1` [Example 76, (R)—N-(4-((1-(3-amino-5-(trifluoromethyl)phenyl)ethyl)amino)-6-(pyrrolidin-1-yl)pyrido[3,4-d]pyrimidin-2-yl)-2-methoxyacetamide] was run?
The inhibition at 1 µM was under 50%.

With `CCN1CCN(c2cnc3cc(Cl)nc(N[C@H](C)c4cc(N)cc(C(F)(F)F)c4)c3c2)CC1` [Example 88, (R)—N-(1-(3-amino-5-(trifluoromethyl)phenyl)ethyl)-7-chloro-3-(4-ethylpiperazin-1-yl)-1,6-naphthyridin-5-amine] as the molecule, how does the inhibition at 1 µM read?
The inhibition at 1 µM was at least 50%.

For `CCC(=O)Nc1nc(N[C@H](C)c2cc(N)cc(C(F)(F)F)c2)c2cc(N3CCCC3)ncc2n1` [Example 75, (R)—N-(4-((1-(3-amino-5-(trifluoromethyl)phenyl)ethyl)amino)-6-(pyrrolidin-1-yl)pyrido[3,4-d]pyrimidin-2-yl)propionamide], which inhibition at 1 µM is on record?
The inhibition at 1 µM was under 50%.

`CCN1CCN(c2cc3c(N[C@H](C)c4cccc(C(F)F)c4F)nc(Cl)nc3cn2)CC1` [Example 62, (R)-2-chloro-N-(1-(3-(difluoromethyl)-2-fluorophenyl)ethyl)-6-(4-ethylpiperazin-1-yl)pyrido[3,4-d]pyrimidin-4-amine] was tested. Which inhibition at 1 µM did it give?
Its inhibition at 1 µM is at least 50%.

For `COC1CCN(c2cc3c(N[C@H](C)c4cc(N)cc(C(F)(F)F)c4)nc(NC(C)C)nc3cn2)CC1` [Example 42, (R)—N4-(1-(3-amino-5-(trifluoromethyl)phenyl)ethyl)-N2-isopropyl-6-(4-methoxypiperidin-1-yl)pyrido[3,4-d]pyrimidine-2,4-diamine], which inhibition at 1 µM is on record?
The inhibition at 1 µM was at least 50%.

Which inhibition at 1 µM does the source give for `CCN1CCN(c2cc3c(N[C@H](C)c4cc(N)cc(C(F)(F)F)c4)nc(Cl)nc3cn2)CC1` [Example 24, (R)—N-(1-(3-amino-5-(trifluoromethyl)phenyl)ethyl)-2-chloro-6-(4-ethylpiperazin-1-yl)pyrido[3,4-d]pyrimidin-4-amine] here?
Its inhibition at 1 µM is at least 50%.

`C[C@@H](Nc1nc(N(C)C)nc2cnc(C3CCN(C)CC3)cc12)c1cc(N)cc(C(F)(F)F)c1` [Example 69, (R)—N4-(1-(3-amino-5-(trifluoromethyl)phenyl)ethyl)-N2,N2-dimethyl-6-(1-methylpiperidin-4-yl)pyrido[3,4-d]pyrimidine-2,4-diamine] was tested. Which inhibition at 1 µM did it give?
Its inhibition at 1 µM is at least 50%.

How did the inhibition at 1 µM turn out when `COC1CCN(c2cc3c(N[C@H](C)c4cccc(C(F)F)c4F)nc(Cl)nc3cn2)CC1` [Example 60, (R)-2-chloro-N-(1-(3-(difluoromethyl)-2-fluorophenyl)ethyl)-6-(4-methoxypiperidin-1-yl)pyrido[3,4-d]pyrimidin-4-amine] was run?
The inhibition at 1 µM was at least 50%.

How did the inhibition at 1 µM turn out when `C[C@@H](Nc1nc(Cl)nc2cnc(N3CCOCC3)cc12)c1cc(N)cc(C(F)(F)F)c1` [Example 19, (R)—N-(1-(3-amino-5-(trifluoromethyl)phenyl)ethyl)-2-chloro-6-morpholinopyrido[3,4-d]pyrimidin-4-amine] was run?
The inhibition at 1 µM was at least 50%.

For `CNc1nc(N[C@H](C)c2cc(N)cc(C(F)(F)F)c2)c2cc(N3CCOCC3)ncc2n1` [Example 18, (R)—N4-(1-(3-amino-5-(trifluoromethyl)phenyl)ethyl)-N2-methyl-6-morpholinopyrido[3,4-d]pyrimidine-2,4-diamine], which inhibition at 1 µM is on record?
Its inhibition at 1 µM is at least 50%.

How did the inhibition at 1 µM turn out when `CCN1CCN(c2cnc3nc(OC)nc(N[C@H](C)c4cc(N)cc(C(F)(F)F)c4)c3c2)CC1` [Example 81, (R)—N-(1-(3-amino-5-(trifluoromethyl)phenyl)ethyl)-6-(4-ethylpiperazin-1-yl)-2-methoxypyrido[2,3-d]pyrimidin-4-amine] was run?
Its inhibition at 1 µM is at least 50%.

`C[C@@H](Nc1nc(NCCN(C)C)nc2cnc(N3CCCC3)cc12)c1cc(N)cc(C(F)(F)F)c1` [Example 9, (R)—N4-(1-(3-amino-5-(trifluoromethyl)phenyl)ethyl)-N2-(2-(dimethylamino)ethyl)-6-(pyrrolidin-1-yl)pyrido[3,4-d]pyrimidine-2,4-diamine] was tested. Which inhibition at 1 µM did it give?
Its inhibition at 1 µM is at least 50%.

How did the inhibition at 1 µM turn out when `C[C@@H](Nc1nc(N(C)C)nc2cnc(N3CCOCC3)cc12)c1cc(N)cc(C(F)(F)F)c1` [Example 8, (R)—N4-(1-(3-amino-5-(trifluoromethyl)phenyl)ethyl)-N2,N2-dimethyl-6-morpholinopyrido[3,4-d]pyrimidine-2,4-diamine] was run?
Its inhibition at 1 µM is at least 50%.

`C[C@@H](Nc1nc(Cl)nc2ncc(N3CCCCC3)cc12)c1cc(N)cc(C(F)(F)F)c1` [Example 83, (R)—N-(1-(3-amino-5-(trifluoromethyl)phenyl)ethyl)-2-chloro-6-(piperidin-1-yl)pyrido[2,3-d]pyrimidin-4-amine] was tested. Which inhibition at 1 µM did it give?
Its inhibition at 1 µM is at least 50%.

For `CNc1nc(N[C@H](C)c2cc(N)cc(C(F)(F)F)c2)c2cc(N3CCCC3)ncc2n1` [Example 7, (R)—N4-(1-(3-amino-5-(trifluoromethyl)phenyl)ethyl)-N2-methyl-6-(pyrrolidin-1-yl)pyrido[3,4-d]pyrimidine-2,4-diamine], which inhibition at 1 µM is on record?
Its inhibition at 1 µM is at least 50%.

For `COc1nc(N[C@H](C)c2cc(N)cc(C(F)(F)F)c2)c2cc(N3CCCC3)ncc2n1` [Example 3, (R)—N-(1-(3-amino-5-(trifluoromethyl)phenyl)ethyl)-2-methoxy-6-(pyrrolidin-1-yl)pyrido[3,4-d]pyrimidin-4-amine], which inhibition at 1 µM is on record?
Its inhibition at 1 µM is at least 50%.

For `COCCNc1nc(N[C@H](C)c2cc(N)cc(C(F)(F)F)c2)c2cc(N3CCOCC3)ncc2n1` [Example 36, (R)—N4-(1-(3-amino-5-(trifluoromethyl)phenyl)ethyl)-N2-(2-methoxyethyl)-6-morpholinopyrido[3,4-d]pyrimidine-2,4-diamine], which inhibition at 1 µM is on record?
Its inhibition at 1 µM is at least 50%.

How did the inhibition at 1 µM turn out when `CCN1CCN(c2cnc3nc(Cl)nc(N[C@H](C)c4cc(N)cc(C(F)(F)F)c4)c3c2)CC1` [Example 80, (R)—N-(1-(3-amino-5-(trifluoromethyl)phenyl)ethyl)-2-chloro-6-(4-ethylpiperazin-1-yl)pyrido[2,3-d]pyrimidin-4-amine] was run?
Its inhibition at 1 µM is at least 50%.
